± gives the expanded uncertainty stated by the source.
settings: Crystal; visual observation

Normal melting temperature	Structure (SMILES)
80.26 ± 0.5 °C	c1ccc2ccccc2c1 [naphthalene]
69.80 ± 0.5 °C	CCCCCCCCCCCCCCCCCC(=O)O [octadecanoic acid]
99.24 ± 0.5 °C	c1ccc2c(c1)ccc1ccccc12 [phenanthrene]

Second part, the molecule before the results:

Structure (SMILES)	Normal melting temperature
O=C(O)CCCCC(=O)O [1,6-hexanedioic acid]	153.20 ± 0.5 °C
Cc1ccc(C(=O)O)cc1 [4-methylbenzoic acid]	179.60 ± 0.5 °C
O=C(O)c1ccccc1 [benzoic acid]	122.4 ± 0.5 °C
